This note sets out measurements from patent US11286236B2, “Compound, agent and composition for the suppression of cancer growth” (Vector Vitale IP LLC, priority 2018, dated 2022).

SMILES strings stand for the structures. Where a name gives a salt, the structure may show the parent alone.

For assay [1], the system named is Mouse melanoma cells (MM-4 cell line). The experiment in a line: Cytotoxic effect on melanoma cells, single agents (crystal violet). It counts as cell-based. Here is the method:
Materials and Methods: Mouse melanoma cells (MM-4 cell line) were seeded into 96-well plates (TPP, Italy) in DMEM (High Glucose w/L-Glutamine w/o Sodium Pyruvate; Biowest, France) supplemented with 10% newborn calf serum (Biowest, France) and […] gentamicin (Sigma, USA) at a seeding density of 5×10^4 cells/ml. The cells were then cultured in an incubator with a humidified atmosphere of 5% CO2 in air at 37° C. 24 hours after the cells were seeded, a compound according to the invention that comprises ^85Rb-enriched rubidium salt of N-benzoyl-N′-(4-toluenesulfonyl)-o-phenylenediamine of formula I was added into the appropriate wells. ^85Rbe-E2 was used at the following doses: 2.0 μg/ml, 1.0 μg/ml, 0.5 μg/ml (each is the final concentration of ^85Rbe after addition to the well). The cytotoxic effect was determined by counting the number of live cells observed after treatment, expressed as a percentage of the number of live cells observed/counted in the control (cells seed in the well and not treated). Control cells were not treated. For each concentration, the experiment was carried out twice. The effects of the drugs were evaluated visually, which allowed us to examine the morphological pattern of the cytotoxic action of the drugs, and by staining the cells with crystal violet, followed by OD measurement at an excitation wavelength of 540 nm using a MultiScan spectrophotometer. For comparison, a parallel experiment was carried out with the use of a known antitumor drug cisplatin and a compound of rubidium salt of N-benzoyl-N′-(4-toluenesulfonyl)-o-phenylenediamine of formula I which comprised a naturally-abundant mixture of isotopes of rubidium instead of being enriched for the ^85Rb isotope.

Assay [2] has the same test system. The experiment in a line: Cytotoxic effect of E2+85Rbe and antitumor drug added 24 hours apart. It counts as cell-based. The method, then:
The effectiveness of the method of the invention that comprises administering antitumor drugs and ^85Rb-enriched rubidium salt of N-benzoyl-N-(4-toluenesulfonyl)-o-phenylenediamine of formula I was measured in the experiment. […] Both orders were tested: AD administered first (Scheme 2, below), and AD administered second (Scheme 1, below).
Materials and Methods: Mouse melanoma cells (MM-4 cell line) were seeded into 96-well plates (TPP, Italy), in DMEM (Biowest, France) supplemented with 10% newborn calf serum (Biowest, France) and […] gentamicin (Sigma, USA) at a seeding density of 5×10^4 cells/ml. The cells were then cultured in an incubator with a humidified atmosphere of 5% CO2 in air at 37° C. The experiment was carried out in accordance with the three schemes given below. The experiment was started 24 hours after the cells were seeded. For this purpose, the agents used in the method were introduced into the appropriate wells. The following schemes of introduction were used for the study:
Scheme 1) The ^85Rb-enriched rubidium salt of N-benzoyl-N′-(4-toluenesulfonyl)-o-phenylenediamine of formula I was introduced at the first stage in the following amounts: 2.0 μg/ml, 1.0 μg/ml, 0, 5 μg/ml, and one antitumor drug was introduced at the second stage (after 24 hours).
Scheme 2) An AD was introduced at the first stage at doses as indicated in Scheme 1 above and ^85Rb-enriched rubidium salt of N-benzoyl-N′-(4-toluenesulfonyl)-o-phenylenediamine of formula I was introduced at the second stage (after 24 hours) at the following doses: 2.0 μg/ml, 1.0 μg/ml, 0.5 μg/ml.
After all the agents were added into the wells, the cells were incubated at 37° C. and 5% CO2 for another 72 hours (96 hours in total after the cells were seeded).
As in example 2, the cytotoxic effect was determined as the percentage of the cell number with respect to the control after their treatment in accordance with the claimed method. The effects of the drugs were evaluated visually, which allowed us to examine the morphological pattern of the cytotoxic action of the drugs, and by staining the cells with crystal violet, followed by OD measurement at an excitation wavelength of 540 nm using a MultiSkan microplate spectrophotometer.
The effects of the complex action of various doses of the investigated substances were evaluated using the concept of synergistic, additive and antagonistic effects of the drugs, as for Example 2, and calculating CI as described in Example 2.
Each table sets forth the % of MM-4 cells that survived in the presence of the drug doses indicated in the in vitro experiments described above, expressed as a percentage of the cells in the control wells.

Regarding `Cc1ccc(S(=O)(=O)Nc2ccccc2NC(=O)c2ccccc2)cc1` [^85Rbe − E2, ^85Rb-enriched rubidium salt of N-benzoyl-N′-(4-toluenesulfonyl)-o-phenylenediamine], the entries for the “Number of cells after their treatment with the drug, %” value in assay [1] (0.5 μg/ml of rubidium (85Rbe or Rb)), in assay [1] (1.0 μg/ml of rubidium (85Rbe or Rb)) and in assay [1] (2.0 μg/ml of rubidium (85Rbe or Rb)) were 32.3 ± 0.7%, 8.3 ± 0.5% and 6.4 ± 0.3%, respectively. Besides, the “% surviving MM-4 cells” value in assay [2] (E2+85Rbe 0.5 μg/ml alone, first stage) was 32.3 ± 0.7%; in assay [2] (E2+85Rbe 0.5 μg/ml alone, second stage (24 h later)) it was 51 ± 1%; in assay [2] (E2+85Rbe 1 μg/ml alone, first stage) it was 8.3 ± 0.5%; in assay [2] (E2+85Rbe 1 μg/ml alone, second stage (24 h later)), 19 ± 0.5%; in assay [2] (E2+85Rbe 2 μg/ml alone, first stage), 6.4 ± 0.3%; in assay [2] (E2+85Rbe 2 μg/ml alone, second stage (24 h later)) it was 17.7 ± 0.8%.

With `N.N.[Cl][Pt][Cl]` [cisplatin], the “Number of cells after their treatment with the drug, %” value in assay [1] (cisplatin 0.5 μg/ml) is given as 84 ± 3.3%; in assay [1] (cisplatin 1.0 μg/ml) it was 51.7 ± 6.9%; in assay [1] (cisplatin 2.5 μg/ml), 24.6 ± 5.2%; in assay [1] (cisplatin 5 μg/ml), 13.8 ± 1.2%; in assay [1] (cisplatin 10 μg/ml), 2.6 ± 1.4%. The “% surviving MM-4 cells” value in assay [2] (cisplatinum 0.5 μg/ml alone, first stage) worked out at 84 ± 3.3%; in assay [2] (cisplatinum 0.5 μg/ml alone, second stage) it was 84.6 ± 3.5%; in assay [2] (cisplatinum 1 μg/ml alone, first stage), 51.7 ± 6.9%; in assay [2] (cisplatinum 1 μg/ml alone, second stage), 70 ± 3.6%; in assay [2] (cisplatinum 2.5 μg/ml alone, first stage) it was 24.6 ± 5.2%; in assay [2] (cisplatinum 2.5 μg/ml alone, second stage), 34 ± 2.6%. For the same compound, the “% surviving MM-4 cells” value in assay [2] (cisplatinum 5 μg/ml alone, first stage) is 13.8 ± 1.2%; in assay [2] (cisplatinum 5 μg/ml alone, second stage), 35.2 ± 3.3%; in assay [2] (cisplatinum 10 μg/ml alone, first stage) it was 2.6 ± 1.4%; in assay [2] (cisplatinum 10 μg/ml alone, second stage), 19.4 ± 0.9%.
